For one data set, the target named is T1, human TLR7 (Homo sapiens, UniProt Q9NYK1).
T1 construct: host or cells: HEK293 (HEK-Blue hTLR7)
T1 sequence (Q9NYK1 27-1049): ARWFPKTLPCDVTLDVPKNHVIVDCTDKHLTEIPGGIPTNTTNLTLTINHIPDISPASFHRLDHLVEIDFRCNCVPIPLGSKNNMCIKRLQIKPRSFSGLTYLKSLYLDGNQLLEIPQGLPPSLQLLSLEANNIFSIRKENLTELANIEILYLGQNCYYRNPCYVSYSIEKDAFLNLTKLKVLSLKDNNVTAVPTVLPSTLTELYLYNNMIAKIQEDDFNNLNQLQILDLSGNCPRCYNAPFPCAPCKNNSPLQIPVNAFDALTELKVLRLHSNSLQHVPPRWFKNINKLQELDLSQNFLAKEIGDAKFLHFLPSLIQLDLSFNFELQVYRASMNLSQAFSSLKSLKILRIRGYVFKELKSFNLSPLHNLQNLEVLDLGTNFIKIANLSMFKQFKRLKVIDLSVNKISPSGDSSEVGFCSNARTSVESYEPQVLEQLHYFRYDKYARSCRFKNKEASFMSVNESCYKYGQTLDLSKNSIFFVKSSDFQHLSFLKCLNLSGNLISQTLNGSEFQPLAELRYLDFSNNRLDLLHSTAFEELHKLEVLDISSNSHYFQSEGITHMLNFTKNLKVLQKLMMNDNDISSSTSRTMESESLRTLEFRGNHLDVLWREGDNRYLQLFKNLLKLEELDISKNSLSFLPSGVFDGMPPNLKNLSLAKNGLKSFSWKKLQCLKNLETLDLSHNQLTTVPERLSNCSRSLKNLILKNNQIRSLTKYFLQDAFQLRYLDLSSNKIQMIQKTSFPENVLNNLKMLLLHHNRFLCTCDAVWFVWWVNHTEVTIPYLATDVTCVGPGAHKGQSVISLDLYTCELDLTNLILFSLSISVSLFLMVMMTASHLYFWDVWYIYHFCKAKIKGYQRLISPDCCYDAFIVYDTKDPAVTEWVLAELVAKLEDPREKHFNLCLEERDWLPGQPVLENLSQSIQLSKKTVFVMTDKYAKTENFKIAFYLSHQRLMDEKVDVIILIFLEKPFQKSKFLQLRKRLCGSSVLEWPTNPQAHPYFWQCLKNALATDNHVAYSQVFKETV
Kind of data set: HEK293-Blue-hTLR-7 cells assay. The format is cell-based. To be noted: HEK293-Blue-hTLR7 cells, R848 stimulation, 20 hrs, SEAP reporter; read-out: HEK/hTLR7 IC50. An excerpt:
A stable HEK293-Blue-hTLR-7 cell line was purchased from InvivoGen (Cat. #: hkb-htlr7, San Diego, California, USA). These cells were originally designed for studying the stimulation of human TLR7 by monitoring the activation of NF-κB. A SEAP (secreted embryonic alkaline phosphatase) reporter gene was placed under the control of the IFN-β minimal promoter fused to five NF-κB and AP-1-binding sites. The SEAP was induced by activating NF-κB and AP-1 via stimulating HEK-Blue hTLR7 cells with TLR7 ligands. Therefore the reporter expression was declined by TLR7 antagonist under the stimulation of a ligand, such as R848 (Resiquimod), for incubation of 20 hrs. The cell culture supernatant SEAP reporter activity was determined using QUANTI-Blue™ kit (Cat. #: rep-qb1, Invivogen, San Diego, Ca, USA) at a wavelength of 640 nm, a detection medium that turns purple or blue in the presence of alkaline phosphatase.
HEK293-Blue-hTLR7 cells were incubated at a density of 250,000˜450,000 cells/mL in a volume of 170 μL in a 96-well plate in Dulbecco's Modified Eagle's medium (DMEM) containing 4.5 g/L glucose, 50 U/mL penicillin, […], […], 2 mM L-glutamine, 10% (v/v) heat-inactivated fetal bovine serum with addition of 20 μL test compound in a serial dilution in the presence of final DMSO at 1% and 10 μL of 20 uM R848 in above DMEM, perform incubation under 37° C. in a CO2 incubator for 20 hrs. Then 20 μL of the supernatant from each well was incubated with 180 μL Quanti-blue substrate solution at 37° C. for 2 hrs and the absorbance was read at 620˜655 nm using a spectrophotometer. The signaling pathway that TLR7 activation leads to downstream NF-κB activation has been widely accepted, and therefore similar reporter assay was modified for evaluating TLR7 antagonist.

The target of the next data set is T2, CYP2C9 (Homo sapiens, UniProt P11712).
T2 construct: tissue BD-Gentest 452117; host or cells: human liver microsomes
Put plainly: CYP inhibition assay in human liver microsome, CYP2C9. It is filed as in vitro ADME. To be noted: percentage inhibition, substrate Diclofenac 5 μM. The method, then: (§1) This is a high throughput screening assay used for assessment of reversible inhibition of CYP2C9, CYP2D6, and CYP3A4 activity of test compounds in human liver microsome (HLM) in early discovery stage.
(§2) 10 mM DMSO stock solutions of test compounds were diluted in DMSO to generate 2 mM intermediate stock solution. 250 nL of intermediate stock solution were transferred in duplicate into 3 separate 384 well microtitre plates (assay-ready plates). A mixture of HLM and each substrate was made up. 45 μL of HLM substrate mix was then transferred to each well of an assay ready plate and mixed. The negative (solvent) and positive controls (standard inhibitor for each CYP) were included in each assay ready plate. The assay ready plate was warmed to 37° C. in an incubator over 10 minutes. 5 μL pre-warmed NADPH regenerating system was added to each incubation well to start the reaction. Final incubation volume was 50 μL. The assay plate then was placed back in the 37° C. incubator. After incubation (10 minutes for CYP2D6) for 5 minutes, incubates were quenched by addition of 50 μL 100% acetonitrile containing internal standards (400 ng/mL 13C6-4′-OH-Diclofenac, 20 ng/mL D3-Dextrorphan and 20 ng/mL D4-1′OH-Midazolam). The supernatants were collected for RapidFire/MS/MS analysis.
(§3) RapidFire online solid phase extraction/sample injection system (Agilent) coupled with API4000 triple quadrupole mass spectrometer (AB Sciex) were used for sample analysis. The mobile phase composed of acetonitrile and water supplemented with 0.1% formic acid. A C4 solid phase extraction cartridge is used for sample separation. MS detection is achieved in positive ion MRM mode.
(§4) Peak areas for substrate, metabolite and internal standard are determined using the RapidFire integrator software (version 3.6.12009.12296). Peak area ratios (PAR) of metabolite and internal standard (stable-labelled metabolite) are then calculated. The measurement window for each experiment is then defined:
(§5) PAR (0% activity)=average PAR for all incubations containing concentrated inhibitor;
(§6) Par (100% activity)=average PAR for all incubations containing no inhibitor (DMSO controls);
(§7) % Activity (test inhibitor)=[PAR(test inhibitor)−PAR(0% activity)/PAR(100% activity)−PAR(0% activity)];
(§8) % Inhibition (test inhibitor)=100−% Activity (test inhibitor).
Background: Liver microsomes are a subcellular fraction often used to study metabolism.

In the next data set the target is T3, CYP2D6 (Homo sapiens, UniProt P10635).
T3 construct: tissue BD-Gentest 452117; host or cells: human liver microsomes
Kind of data set: CYP inhibition assay in human liver microsome, CYP2D6. The format is in vitro ADME. To be noted: percentage inhibition, substrate Dextromethorphan 5 μM. On the procedure: as §1, §2, §3, §4, §5, §6, §7, §8

Structures are written as SMILES. pIC50: −log10 of the molar value.

T3 sequence (P10635 whole entry): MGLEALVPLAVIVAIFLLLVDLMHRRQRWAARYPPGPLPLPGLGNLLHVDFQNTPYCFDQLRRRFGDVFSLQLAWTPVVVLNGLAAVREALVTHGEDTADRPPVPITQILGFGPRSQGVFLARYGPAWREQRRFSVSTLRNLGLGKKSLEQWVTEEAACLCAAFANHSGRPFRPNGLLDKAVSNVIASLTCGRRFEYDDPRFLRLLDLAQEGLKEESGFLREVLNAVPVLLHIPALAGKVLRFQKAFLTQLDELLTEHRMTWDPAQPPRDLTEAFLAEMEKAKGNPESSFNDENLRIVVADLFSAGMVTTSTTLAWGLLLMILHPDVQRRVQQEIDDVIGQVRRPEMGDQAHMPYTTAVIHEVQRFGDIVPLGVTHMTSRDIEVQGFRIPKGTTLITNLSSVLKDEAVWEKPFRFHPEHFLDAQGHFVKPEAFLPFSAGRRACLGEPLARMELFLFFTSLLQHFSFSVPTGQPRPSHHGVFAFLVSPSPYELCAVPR
T2 sequence (P11712 whole entry): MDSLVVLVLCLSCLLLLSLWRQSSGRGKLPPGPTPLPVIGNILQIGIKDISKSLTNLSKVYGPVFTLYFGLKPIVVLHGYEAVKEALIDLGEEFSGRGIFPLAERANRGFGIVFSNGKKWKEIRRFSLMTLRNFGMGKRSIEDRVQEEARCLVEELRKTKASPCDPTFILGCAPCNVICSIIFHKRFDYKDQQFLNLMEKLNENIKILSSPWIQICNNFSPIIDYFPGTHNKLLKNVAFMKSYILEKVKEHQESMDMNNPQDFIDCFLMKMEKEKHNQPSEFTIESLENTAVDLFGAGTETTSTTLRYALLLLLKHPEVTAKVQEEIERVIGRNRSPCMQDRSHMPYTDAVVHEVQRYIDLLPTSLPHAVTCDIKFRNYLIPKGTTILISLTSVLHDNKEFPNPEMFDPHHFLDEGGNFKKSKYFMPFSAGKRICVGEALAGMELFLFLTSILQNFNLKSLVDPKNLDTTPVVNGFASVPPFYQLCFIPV

As to `C[C@@H]1CN(c2ccc(C#N)c3ncccc23)C[C@@H]2C[C@H](Nc3ccc(C[C@@H]4CNCCO4)cc3)CCN21` [Example 21, 5-[(4R,8R,9aS)-4-methyl-8-[4-[[(2R)-morpholin-2-yl]methyl]anilino]-1,3,4,6,7,8,9,9a-octahydropyrido[1,2-a]pyrazin-2-yl]quinoline-8-carbonitrile], the pIC50 at human TLR7 is 7.70. Also, the “CYP (%) 2C9” value on CYP2C9 amounted to 3%. Moreover, on CYP2D6, the “CYP (%) 2D6” value stood at 9%.

These data come from patent US12421229B2, “Hydropyrido[1,2-α]pyrazine compounds for the treatment of autoimmune disease” (Hoffmann-La Roche Inc., priority 2019, dated 2025).
